In US6545053B1, “Tricyclic compounds and drug compositions containing same” (Asahi Kasei Kogyo Kabushiki Kaisha, priority 1996, dated 2003):
Counter-ions that a name gives are not always drawn. Like-named read-outs stand apart in the source and are kept apart here.

Tests used:
male ddy mice [1] = assay: Lipolytic effect in mice (serum free fatty acid); type: in vivo
Procedure: Blood Sugar Decreasing Effect and Lipolytic Effect Male ddy mice (supplied from the firm Nippon Charles Liver) of 6 weeks age were subcutaneously administered with glucose in a dose of 2 g/kg. The animals were also treated with either one of test compounds via oral or intraperitoneal administration in a dose of 0.1 ml per 10 grams of body weight. After one hour, blood sample was taken from abdominal aorta, from which serum was separated and served as the sample. Lipolytic Effect Amount of free fatty acid in the samples was determined using NEFA HA TEST WAKO (of the firm Wako Pure Chemical). […] Therefore, it was shown that they are useful as medicament for preventive and therapeutic treatment of hyperlipemia and for therapeutic treatment of obesity.

human β3 = target: T1, human β3 (Homo sapiens, UniProt P13945); assay: Human β3-agonist activity (cAMP in CHO cells transfected with human β3 gene); type: cell-based; settings: for Emax: CHO, read-out: Intrinsic activity (%)
T1 construct: And then full length of human β3 gene was cloned using this fragment as a probe; expressed in transfected cells; host or cells: CHO cells (Chinese hamster ovary), pcDNA3 vector
Procedure: Human β3-agonist Activity
Human β3-agonist activity was examined using CHO cells (chinese hamster ovarian cells) to which pcDNA3 (in vitrogen) cells inserted human β3 gene was transfected. Human β3 fragment was obtained by PCR using human fat tissue cDNA (supplied from Clontech) with a β3 primer [Krief et al, J. Clin. Invest.
The cells were cultured in a HAM F-12 medium containing 10% of fetal bovine serum, 400 μg/ml of Geneticin (Gibco BRL). 100 U/ml penicillin and 100 μg/ml streptomycin. 5×10^5 cells were placed on a 6-well plate and cultured for 24 hours, after which the medium was changed to a HAM F-12 medium without serum and was kept for 2 hours. Each test compound was first dissolved in DMSO, and then diluted with a HAM F-12 medium containing 1 mM isobutylmethyl xanthine and 1 mM ascorbic acid. A 10-fold dilution in the range of 10^−5 to 10^−12 M was added into the cell.
After culturing for 30 minutes, culture medium was withdrawn, 0.5 ml of 1 N NaOH was added and was kept for 20 minutes. And then 0.5 ml of 1 N acetic acid was added with subsequent agitation and centrifugation. Finally the concentration of cAMP were analyzed using cAMP EIA KIT (Cayman). […] Isoprotelenol was purchased from Research Biochimicals International.

canine adipocytes = assay: Lipolytic activity in canine fatty cell (glycerol release); type: cell-based, dogs; settings: Canis lupus familiaris, Adipocyte; for EC50: 1 h, glycerol release, canine adipocytes, read-out: ED50 (the source's name); for Emax: read-out: Intrinsic activity (%)
Procedure: Lipolytic Activity in Canine Fatty Cell
Adipose tissues in the omentum were collected from dogs and minced and washed. Krebs-Ringer buffer solution containing 1 mg/ml Collagenase (Sigma) and 1% of bovine serum albumin was added in an amount of 3 ml per one gram of the tissue. These cells were then incubated at 37° C. for 30 minutes with shaking and then undigested tissues were removed with a nylon filter. The resulting adipocytes were washed four times with Krebs-Ringer buffer, and then the concentration of cells was diluted to 2×10^5/ml with Krebs-Ringer buffer solution containing 4% of bovine serum albumin. These cells were transferred to Eppendorf tubes each in an amount of 300 μl.
Each 300 μl of a culture medium containing the test compounds were added to these tubes and was held at 37° C. for 1 hour whith shaking. Stimulation was stoped by cooling with ice. After centrifugation, the adipocytes were taken off with an aspirator, whereupon the glycerol was determined using F-KIT GLTCEROL (Behringer-Manheim).

male ddy mice [2] = assay: Blood sugar decreasing effect in glucose-loaded mice; type: in vivo; settings: intraperitoneal administration; glucose 2 g/kg s.c.; after one hour
Procedure: Blood Sugar Decreasing Effect and Lipolytic Effect Male ddy mice (supplied from the firm Nippon Charles Liver) of 6 weeks age were subcutaneously administered with glucose in a dose of 2 g/kg. The animals were also treated with either one of test compounds via oral or intraperitoneal administration in a dose of 0.1 ml per 10 grams of body weight. After one hour, blood sample was taken from abdominal aorta, from which serum was separated and served as the sample. Blood Sugar Decreasing Effect The samples prepared as above were analyzed for the serum glucose concentration by Auto analyzer (SUPER Z of the firm M. C. Medical). For the analyzer kit, Glucose II HA TEST WAKO (of the firm Wako Pure Chemical) was used. % decrease in blood sugar=[(A−B)/(A−C)]×100 in which A represents the glucose concentration upon being loaded with glucose, B represents the glucose concentration after administration of the compound and C is the usual level of the glucose concentration. […] Therefore, it was proven that the compound according to the present invention is effective as a medicament for therapeutic and preventive treatment of diabetes.

male ddy mice [3] = assay: Toxicity test in mice; type: in vivo; settings: dose of 100 mg/kg; 8 mice
Procedure: The compounds of Examples 7 and 31 were administered to 6 week age male ddy mice (supplied from the firm Nippon Charles Liver) at a dose of 100 mg/kg.

[4] = cAMP, CHO cells with human β3, read-out: ED50 (the source's name)

T1 sequence (P13945 whole entry, the tested form may be a part): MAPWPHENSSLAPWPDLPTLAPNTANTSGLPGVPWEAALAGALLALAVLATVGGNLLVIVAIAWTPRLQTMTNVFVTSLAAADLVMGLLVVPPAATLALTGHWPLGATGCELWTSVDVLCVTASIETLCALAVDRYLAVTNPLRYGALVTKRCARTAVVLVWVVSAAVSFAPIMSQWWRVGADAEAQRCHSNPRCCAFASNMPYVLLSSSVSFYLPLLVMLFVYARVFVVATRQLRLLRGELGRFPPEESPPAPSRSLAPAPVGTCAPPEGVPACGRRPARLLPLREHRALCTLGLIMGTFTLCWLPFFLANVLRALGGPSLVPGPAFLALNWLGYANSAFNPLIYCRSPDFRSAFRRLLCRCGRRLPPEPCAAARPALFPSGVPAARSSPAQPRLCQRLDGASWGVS

Row | SMILES | increase of free fatty acid (male ddy mice [1]; intraperitoneal administration of 10 mg/kg) | EC50 (human β3) | Emax (human β3) | EC50 (canine adipocytes) | Emax (canine adipocytes) | % decrease in blood sugar (male ddy mice [2]) | fatal cases (male ddy mice [3]) | increase of free fatty acid (male ddy mice [1]; oral administration of 100 mg/kg) | EC50 (human β3; [4])
1 | CS(=O)(=O)Nc1cc(C(O)CNCCOc2ccc3c(c2)[nH]c2ccccc23)ccc1O.Cl (racemic) [Example 2, (±)-N-[5-[2-[2-(9H-Carbazol-2-yloxy)ethylamino]-1-hydroxyethyl]-2-hydroxyphenyl]methanesulfonamide Hydrochloride] | 67.2% | 0.18 nM | 120% | 56 nM | 82% | 77.1% |  |  | 
2 | CS(=O)(=O)Nc1cccc(C(O)CNCCOc2ccc3c(c2)[nH]c2ccccc23)c1.Cl (racemic) [Example 7, (±)-N-[3-[2-[2-(9H-Carbazol-2-yloxy)ethylamino]-1-hydroxyethyl]phenyl]methanesulfonamide Hydrochloride] |  | 18 nM | 95% | 1200 nM | 90% |  | no fatal case | 47.7% | 
3 | CS(=O)(=O)Nc1cccc(C(O)CNCCOc2ccc3c(c2)oc2ccccc23)c1 (racemic) [Example 9, (±)-N-[3-[2-[2-(Dibenzofuran-3-yloxy)ethylamino]-1-hydroxyethl]phenyl]methanesulfonamide Hydrochloride] |  |  | 85% | 250 nM | 106% |  |  |  | 750 nM
4 | CN(C)S(=O)(=O)Nc1cc(C(O)CNCCOc2ccc3c(c2)[nH]c2ccccc23)ccc1O (racemic) [Example 25, (±)-N′-[5-[2-[2-(9H-Carbazol-2-yloxy)ethylamino]-1-hydroxyethyl]-2-hydroxyphenyl]-N,N-dimethylsulfamide Hydrochloride] |  | 2.1 nM | 95% | 510 nM | 70% |  |  |  | 
5 | CS(=O)(=O)Nc1cc(C(O)CNCCOc2ccc3c(c2)sc2ccccc23)ccc1O (racemic) [Example 38, (±)-N-[5-[2-[2-(Dibenzothiophen-3-yloxy)ethylamino]-1-hydroxyethyl]-2-hydroxyphenyl]methanesulfonamide Hydrochloride] |  | 0.006 nM | 76% | 2.6 nM | 103% |  |  |  | 
6 | CN(C)S(=O)(=O)Nc1cc(C(O)CNCCOc2ccc3c(c2)sc2ccccc23)ccc1O (racemic) [Example 40, (±)-N′-[5-[2-[2-(Dibenzothiophen-3-yloxy)ethylamino]-1-hydroxyethyl]-2-hydroxyphenyl]-N, N-dimethylsulfamide Hydrochloride] |  | 200 nM | 97% | 13 nM | 92% |  |  |  | 
7 | CS(=O)(=O)Nc1cccc(C(O)CNCCOc2ccc3c(c2)sc2ccccc23)c1 (racemic) [Example 41, (±)-N-[3-[2-[2-(Dibenzothiophen-3-yloxy)ethlamino]-1-hydroxyethyl]phenyl]methanesulfonamide Hydrochloride] |  |  | 63% | 240 nM | 109% |  |  |  | 600 nM
8 | CN(C)S(=O)(=O)Nc1cc(C(O)CNCCOc2ccc3c(c2)oc2ccccc23)ccc1O (racemic) [Example 43, (±)-N′-[5-[2-[2-(Dibenzofuran-3-yloxy)ethylamino]-1-hydroxyethyl]-2-hydroxyphenyl]-N,N-dimethylsulfamide Hydrochloride] |  | 85 nM | 104% | 4 nM | 77% |  |  |  | 
9 | CC(=O)Nc1ccc2c(c1)Cc1cc(OCCNCC(O)c3ccc(O)c(NS(C)(=O)=O)c3)ccc1-2 (racemic) [Example 50, (±)-N-[5-[2-[2-(9H-7-Acetylaminofluoren-2-yloxy)ethylamino]-1-hydroxyethyl]-2-hydroxyphenyl]methanesulfonamide Hydrochloride] |  |  | 85% | 0.19 nM | 112% |  |  |  | 0.94 nM
10 | CS(=O)(=O)Nc1cc(C(O)CNCCOc2ccc3c(c2)Cc2cc(N)ccc2-3)ccc1O (racemic) [Example 52, (±)-N-[5-[2-[2-(9H-7-Aminofluoren-2-yloxy)ethylamino]-1-hydroxyethyl]-2-hydroxyphenyl]methanesulfonamide Hydrochloride] |  |  | 78% | 0.38 nM | 100% |  |  |  | 2.6 nM
11 | CC(C)S(=O)(=O)Nc1cc(C(O)CNCCOc2ccc3c(c2)[nH]c2ccccc23)ccc1O (racemic) [Example 54, (±)-N-[5-[2-[2-(9H-Carbazol-2-yloxy)ethylamino]-1-hydroxyethyl]-2-hydroxyphenyl]-2-propanesulfonamide Hydrochloride] |  | 8.4 nM | 109% | 25 nM | 118% |  |  |  | 
12 | OCc1cc(C(O)CNCCOc2ccc3c(c2)[nH]c2ccccc23)ccc1O (racemic) [Example 67, (±)-2-[N-[2-(9H-Carbazol-2-yloxy)ethyl]amino]-1-[4-hydroxy-3-(hydroxymethyl)phenyl]ethanol Hydrochloride] |  | 28 nM | 109% | 54 nM | 94% |  |  |  | 
13 | COC(CNCCOc1ccc2c(c1)[nH]c1ccccc12)c1ccc(N)c(NS(C)(=O)=O)c1 (racemic) [Example 92, (±)-N-[5-[2-[2-(9H-Carbazol-2-yloxy)ethylamino]-1-methoxyethyl]-2-aminophenyl]methanesulfonamide Hydrochloride] |  | 280 nM | 81% | 1900 nM | 126% |  |  |  | 
14 | O[C@@H](CNCCOc1ccc2c(c1)[nH]c1ccccc12)c1ccccc1 [Example 32, (R)-2-[N-[2-(9H-Carbazol-2-yloxy)ethyl]amino]-1-phenylethanol Hydrochloride] |  | 1600 nM | 98% | 290 nM | 94% |  |  |  | 
15 | CS(=O)(=O)Nc1cc([C@@H](O)CNCCOc2ccc3c(c2)oc2ccccc23)ccc1O [Example 69, (R)-N-[5-[2-[2-(Dibenzofuran-3-yloxy)ethylamino]-1-hydroxyethyl]-2-hydroxyphenyl]methanesulfonamide Hydrochloride] |  | 0.016 nM | 94% | 0.65 nM | 107% |  |  |  | 
16 | CC(=O)Nc1ccc2c(c1)Cc1cc(OCCNC[C@H](O)c3cccc(NS(C)(=O)=O)c3)ccc1-2 [Example 71, (R)-N-13-[2-[2-(9H-7-Acetylaminofluoren-2-yloxy)ethylamino]-1-hydroxyethyl]phenyl]methanesulfonamide Hydrochloride] |  |  | 97% | 110 nM | 88% |  |  |  | 180 nM
17 | CS(=O)(=O)Nc1cc([C@@H](O)CNCCOc2ccc3c(c2)sc2ccccc23)ccc1O [Example 72, (R)-N-[5-[2-[2-(Dibenzothiophen-3-yloxy)ethylamino]-1-hydroxyethyl]-2-hydroxyphenyl]methanesulfonamide Hydrochloride] |  |  | 80% | 0.54 nM | 96% |  |  |  | 
